Results on three compounds are retold here after US20240034717A1, “NOVEL POTASSIUM CHANNEL INHIBITORS” (Saniona A/S, priority 2020, published 2024).

Where “and” joins values, the source holds several entries; their conditions need not be identical. Equal entries are not always repeated. Some results are limits rather than exact numbers.

Series [1] addresses erythrocyte KCa3.1 channels (Homo sapiens (Human), UniProt O15554). Put plainly: Erythrocyte KCa3.1 assay. Type of series: cell-based. The note with it: human erythrocytes, A23187-activated KCa3.1; read-out: RBC K (in vitro) Human IC50 (μM) Potency category. An outline of the steps:
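Washed human erythrocytes (cytocrit 1.5%) in unbuffered salt solution at 37° C with 20 μM CCCP and test compound; channels activated by 0.33 μM A23187. Peak hyperpolarization tracked via extracellular pH gives fractional remaining K+ conductance; IC50 (μM) from Hill fit.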

A further series can be described thus: physchem. The note with it: 25 °C, pH 7.4, aqueous buffer, kinetic from dmso stock. On the procedure: 2.79 g of K2HPO4 and 0.54 g of KH2PO4 was dissolved in 390 mL of milliQ water. pH was adjusted to 7.4 using 1N HCl/1N NaOH and final volume was made up to 400 mL with milliQ water.
In case of compounds not soluble/less quantity submission, 40/20/10Mm stocks were prepared and used for experiment.
Assay Procedure: • 245 μL of 50 mM phosphate buffer then 5 μL each of test compound/standards (80 mM) in their respective positions was added to the 1.1 mL 96 well plate. • DMSO Controls was prepared by taking 245 μL of 100% DMSO then 5 μL each of test compound in their respective positions and added to the 1.1 mL 96 well plate • Plate was incubated with mixing at 1600 RPM for 16 hours at room temperature (˜23 MC). • After incubation, samples were filtered using Millipore plates. • Filtrates were analysed by HPLC-UV.
Solubility is calculated using the following formula: […]

The conditions of series [2]: cited from earlier work.
The next series relates to mouse model of ARDS. The settings on record: treatment; cited from earlier work.

Take `Fc1ccc(C2(N(CC3CC3)C3CNC3)CC2)cc1C(F)(F)F` [N-(cyclopropylmethyl)-N-(1-(4-fluoro-3-(trifluoromethyl)phenyl)cyclopropyl)azetidin-3-amine]: the half-maximal inhibitory concentration (IC50) in series [1] was less than 0.3 µM. The solubility at 16 h in the series “physchem” was 679 µg/mL and 1500 µM.

In the case of `Clc1ccccc1C(c1ccccc1)(c1ccccc1)n1cccn1` [TRAM-34], the Water solubility entry in series [2] is listed as “extremely low”. For the same compound, the Gas exchange result with mouse model of ARDS was “improvement was also demonstrated”.

As for `NC(=O)C(c1ccccc1)(c1ccc(F)cc1)c1ccc(F)cc1` [senicapoc], the Water solubility result in series [2] is listed as “extremely low”. For the same compound, the Gas exchange result with mouse model of ARDS is “improvement was also demonstrated”.

One may read the IC50 as the point on the concentration scale where inhibition reaches its midpoint. A word on the solubility: it is how much of the substance goes into solution per volume.
